Laboratory results: patent publication US10793892B2, “Method for detecting the presence of expanded spectrum β-lactamase-producing bacteria in a sample” (INSERM (INSTITUT NATIONAL DE LA SANTE ET DE LA RECHERCHE …, priority 2011, dated 2020)

How the values were obtained:
E. coli = experiment: Susceptibility testing, MIC by Etest; assay type: cell-based, Escherichia coli
Procedure: (§1) Susceptibility testing was performed by determining MIC values using the Etest® (AB bioMérieux; Solna, Sweden) on Mueller-Hinton agar plates at 37° C. and results were recorded according to US guidelines (CLSI), as updated in 2012 (2). The breakpoints for cefotaxime are susceptible (S)≤1 and resistant (R)≥4 μg/ml, and for ceftazidime S≤4 and R≥16 μg/ml.

M. morganii [1] = experiment: ESBL NDP test using spiked blood cultures; assay type: biochemical, Morganella morganii; design: key: (+) and (−) referred to color change being, red to yellow or unchanged, respectively; (+) and (−) referred to color change being, red to yellow or unchanged, respectively
Procedure: (§2) Strains were isolated on Mueller-Hinton agar (Biorad, Marnes-la-Coquette, France) and incubated at 37° C. for 16 h to 24 h before performing the NDP rapid ESBL test as follows. One calibrated inoculated loop (10 μl) of the tested strain was resuspended in 150 μl of 20 mM Tris-HCl lysis buffer previously distributed in Microbead tubes (Ultraclean Microbial DNA isolation kit Bead Tubes, MO BIO Laboratories, Carlsbad, USA). Mechanical lysis of bacteria was performed by strong agitation of Microbead tubes using a vortex adapter (MO BIO Laboratories) for 30 min at room temperature. This bacterial suspension was centrifuged at 10,000×g at room temperature for 5 min. Thirty μl of the supernatant was mixed in a well of a 96-well tray with 100 μl of a 1 ml solution made of 3 mg of purified cefotaxime sodium salt (Sigma-Aldrich, Saint-Quentin-Fallavier, France) in a pH 7.8 phenol red solution. […]. […] Similarly, culture extracts were analyzed in wells containing cefotaxime and tazobactam (4 mg/ml). […]
(§3) Rapid detection of ESBL producers was attempted from spiked blood cultures which positivity was assessed using the BactAlert blood culture system (bioMérieux). […] Spiked blood cultures were made of 1×10^3 CFU of each strain and incubated 24 to 48 h before a positivity of the blood culture was detected by the BactAlert system. […]

E. cloacae = experiment: ESBL NDP test using spiked blood cultures; assay type: biochemical, Enterobacter cloacae; design: key: (+) and (−) referred to color change being, red to yellow or unchanged, respectively; (+) and (−) referred to color change being, red to yellow or unchanged, respectively
Procedure: (§4) Strains were isolated on Mueller-Hinton agar (Biorad, Marnes-la-Coquette, France) and incubated at 37° C. for 16 h to 24 h before performing the NDP rapid ESBL test as follows. One calibrated inoculated loop (10 μl) of the tested strain was resuspended in 150 μl of 20 mM Tris-HCl lysis buffer previously distributed in Microbead tubes (Ultraclean Microbial DNA isolation kit Bead Tubes, MO BIO Laboratories, Carlsbad, USA). Mechanical lysis of bacteria was performed by strong agitation of Microbead tubes using a vortex adapter (MO BIO Laboratories) for 30 min at room temperature. This bacterial suspension was centrifuged at 10,000×g at room temperature for 5 min. Thirty μl of the supernatant was mixed in a well of a 96-well tray with 100 μl of a 1 ml solution made of 3 mg of purified cefotaxime sodium salt (Sigma-Aldrich, Saint-Quentin-Fallavier, France) in a pH 7.8 phenol red solution. […]. The phenol red solution was made by taking 2 ml of a concentrated pH 8 phenol solution (made from a mixture of phenol red 0.5% in distilled water) to which 16.6 ml of distilled water was added. The pH value was then adjusted to a 7.8 value by adding drops of a 1 N NaOH solution. Mixture of the phenol red solution and the enzymatic suspension being tested was incubated at 37° C. for 30 min. Similarly, culture extracts were analyzed in wells containing cefotaxime and tazobactam (4 mg/ml). Other concentrations of tazobactam and other ß-lactamase inhibitors were tested giving less clear results (data not shown). […] This definition of test positivity will be applied throughout the study.
Rapid detection of ESBL producers was attempted from spiked blood cultures which positivity was assessed using the BactAlert blood culture system (bioMérieux). […] This inoculum was reached after 24-48 h incubation in this BactAlert system. Strains were inoculated into blood culture system in presence of 10 ml of sterile blood. The panel of strains used for spiking blood cultures included either non-ESBL producers (n=24) or ESBL producers (n=64) (Table 4). Spiked blood cultures were made of 1×10^3 CFU of each strain and incubated 24 to 48 h before a positivity of the blood culture was detected by the BactAlert system. Then, 15 ml of spiked blood culture were transferred in a sterile tube and centrifuged at 1,500×g for 3 min to pellet the red blood cells. The supernatant was recovered and centrifuged for 15 min at 4,000×g to pellet the bacteria. The bacterial pellet was then resuspended in 500 μl of distilled water, transferred in 1.5 ml tube and thoroughly vortexed for 15 sec to lyse the remnant red blood cells and wash the bacterial pellet. After 5 min of centrifugation at 10,000×g, the bacterial pellet was resuspended in 150 μl of 20 mM Tris-HCl lysis buffer and distributed in beadtubes. The ESBL NDP test was then applied to this pellet as described above. Experiments were systematically performed in triplicate.

P. mirabilis = experiment: ESBL NDP test using cultured strains; assay type: biochemical, Proteus mirabilis; design: key: (+) and (−) referred to color change being, red to yellow or unchanged, respectively; (+) and (−) referred to color change being, red to yellow or unchanged, respectively
Procedure: as §4

C. freundii = experiment: Susceptibility testing, MIC by Etest; assay type: cell-based, Citrobacter freundii
Procedure: as §1

S. marcescens = experiment: ESBL NDP test using spiked blood cultures; assay type: biochemical, Serratia marcescens; design: key: (+) and (−) referred to color change being, red to yellow or unchanged, respectively; (+) and (−) referred to color change being, red to yellow or unchanged, respectively
Procedure: as §2, §3

S. enterica = experiment: ESBL NDP test using cultured strains; assay type: biochemical, Salmonella enterica; design: key: (+) and (−) referred to color change being, red to yellow or unchanged, respectively; (+) and (−) referred to color change being, red to yellow or unchanged, respectively
Procedure: Strains were isolated on Mueller-Hinton agar (Biorad, Marnes-la-Coquette, France) and incubated at 37° C. for 16 h to 24 h before performing the NDP rapid ESBL test as follows. One calibrated inoculated loop (10 μl) of the tested strain was resuspended in 150 μl of 20 mM Tris-HCl lysis buffer previously distributed in Microbead tubes (Ultraclean Microbial DNA isolation kit Bead Tubes, MO BIO Laboratories, Carlsbad, USA). Mechanical lysis of bacteria was performed by strong agitation of Microbead tubes using a vortex adapter (MO BIO Laboratories) for 30 min at room temperature. This bacterial suspension was centrifuged at 10,000×g at room temperature for 5 min. Thirty μl of the supernatant was mixed in a well of a 96-well tray with 100 μl of a 1 ml solution made of 3 mg of purified cefotaxime sodium salt (Sigma-Aldrich, Saint-Quentin-Fallavier, France) in a pH 7.8 phenol red solution. […]. The phenol red solution was made by taking 2 ml of a concentrated pH 8 phenol solution (made from a mixture of phenol red 0.5% in distilled water) to which 16.6 ml of distilled water was added. The pH value was then adjusted to a 7.8 value by adding drops of a 1 N NaOH solution. Mixture of the phenol red solution and the enzymatic suspension being tested was incubated at 37° C. for 30 min. Similarly, culture extracts were analyzed in wells containing cefotaxime and tazobactam (4 mg/ml). […]

P. stuartii = experiment: Susceptibility testing, MIC by Etest; assay type: cell-based, Providencia stuartii; settings: P. stuartii TEM-24, n=1
Procedure: as §1

M. morganii [2] = experiment: ESBL NDP test using cultured strains; assay type: biochemical, Morganella morganii; design: key: (+) and (−) referred to color change being, red to yellow or unchanged, respectively; (+) and (−) referred to color change being, red to yellow or unchanged, respectively
Procedure: as §4

[3] = M. morganii BG 1106 5902, Wild-type
[4] = M. morganii BG 1117 0617, Wild-type

SMILES: CO/N=C(\C(=O)N[C@@H]1C(=O)N2C(C(=O)O)=C(COC(C)=O)CS[C@H]12)c1csc(N)n1 [CTX, cefotaxime]
- MICs range (E. coli; E. coli ACC-1, n=1, first line): >16 µg/mL
- MICs range (E. coli; E. coli ACC-1, n=1, second line): >16 µg/mL
- MICs range (E. coli; E. coli CMY-2, n=1): >16 µg/mL
- MICs range (E. coli; E. coli CTX-M-1, n=16): >16 µg/mL
- MICs range (E. coli; E. coli CTX-M-2, n=3): >16 µg/mL
- MICs range (E. coli; E. coli CTX-M-3, n=1): >16 µg/mL
- MICs range (E. coli; E. coli CTX-M-9, n=1): >16 µg/mL
- MICs range (E. coli; E. coli CTX-M-14, n=15): >16 µg/mL
- MICs range (E. coli; E. coli CTX-M-27, n=6): >16 µg/mL
- MICs range (E. coli; E. coli CTX-M-28, n=1): >16 µg/mL
- MICs range (E. coli; E. coli CTX-M-32, n=1): >16 µg/mL
- MICs range (E. coli; E. coli CTX-M-97, n=1): >16 µg/mL
- MICs range (E. coli; E. coli DHA-1, n=1): 0.25 µg/mL
- MICs range (E. coli; E. coli SHV-3, n=1): 12 µg/mL
- MICs range (E. coli; E. coli SHV-12, n=1): 0.75 µg/mL
- MICs range (E. coli; E. coli SHV-12, n=6): >16 µg/mL
- MICs range (E. coli; E. coli TEM-1 penicillinase, n=5): 0.03 to 0.09 µg/mL
- MICs range (E. coli; E. coli TEM-12, n=1): 0.5 µg/mL
- MICs range (E. coli; E. coli TEM-29, n=2): 0.25 µg/mL
- MICs range (E. coli; E. coli TEM-133, n=1): 0.19 µg/mL
- MICs range (E. coli; E. coli VEB-1, n=1): 8 µg/mL
- MICs range (E. coli; E. coli Wild-type, no resistance, n=5): 0.02 to 0.04 µg/mL
- ESBL NDP Test from: Blood culture (M. morganii [1]; [3]): −
- ESBL NDP Test from: Blood culture (M. morganii [1]; [4]): −
- ESBL NDP Test from: Blood culture (E. cloacae; E. cloacae 09.57, SHV-12): +
- ESBL NDP Test from: Blood culture (E. cloacae; E. cloacae 10.75, CTX-M-15): +
- ESBL NDP Test from: Blood culture (E. cloacae; E. cloacae 10.87, CTX-M-15): +
- ESBL NDP Test from: Blood culture (E. cloacae; E. cloacae BG 1106 7725, Wild-type): −
- ESBL NDP Test from: Blood culture (E. cloacae; E. cloacae BG 1106 7746, Wild-type): −
- ESBL NDP Test from: Blood culture (E. cloacae; E. cloacae BG 1107 4118, Wild-type): −
- ESBL NDP Test from: Colonies (P. mirabilis; P. mirabilis 09.128, TEM-52): +
- ESBL NDP Test from: Colonies (P. mirabilis; P. mirabilis 09.177, TEM-21): −
- Test (color change) (P. mirabilis; P. mirabilis ACC-1, n=1): −
- ESBL NDP Test from: Colonies (P. mirabilis; P. mirabilis BIK, ACC-1): −
- Test (color change) (P. mirabilis; P. mirabilis CTX-M-14, n=1): +
- Test (color change) (P. mirabilis; P. mirabilis CTX-M-15, n=1): +
- Test (color change) (P. mirabilis; P. mirabilis PER-1, n=1): +
- Test (color change) (P. mirabilis; P. mirabilis TEM-21, n=1): +
- Test (color change) (P. mirabilis; P. mirabilis TEM-52, n=1): +
- MICs range (C. freundii; C. freundii CTX-M-15, n=3): >16 µg/mL
- MICs range (C. freundii; C. freundii TEM-3, n=1): >16 µg/mL
- MICs range (C. freundii; C. freundii Wild-type, chromosome-encoded cephalosporinase, n=1): 0.12 µg/mL
- ESBL NDP Test from: Blood culture (S. marcescens; S. marcescens BG 1107 4243, Wild-type): −
- ESBL NDP Test from: Blood culture (S. marcescens; S. marcescens BN 1201 0816, Wild-type): −
- Test (color change) (S. enterica; S. enterica CTX-M-1, n=1): +
- Test (color change) (S. enterica; S. enterica Wild-type, no resistance, n=1): −
- MICs range (P. stuartii): 0.5 µg/mL
- ESBL NDP Test from: Colonies (M. morganii [2]; [3]): −
- ESBL NDP Test from: Colonies (M. morganii [2]; [4]): −
- Test (color change) (M. morganii [2]; M. morganii Wild-type, chromosome-encoded cephalosporinase, n=2): −
